These results are taken from patent US20200230068A1, “COMPOSITIONS AND METHODS OF DELIVERY OF PHARMACOLOGICAL AGENTS” (NAL PHARMACEUTICAL GROUP LIMITED, priority 2017, published 2020).

Data set [1] can be described thus: Stability in rat plasma in vitro. It is filed as in vitro ADME. The method, then: SST-Albumin fusion proteins may have a longer serum half-life and/or more stabilized activity in solution or in a pharmaceutical composition in vitro and/or in vivo compared to the corresponding unfused SST molecules. In rat plasma, for example, more than 90% of SST fusion protein was detected until 40 minutes of incubation, and more than 70% of SST fusion proteins remained up to at least 180 min. Under the same conditions, less than about 50% of free SST remained after 40 minute incubation, and no free SST was detected beyond 120 minutes. […] Thus, it would take about 72 hours for the concentration of SST fusion protein to reach zero concentration in plasma.
The stability of free SST and SST fusion protein was compared in in vitro rat plasma.

For data set [2] the following is noted: cited from earlier work.
The target of data set [3] is sst2a receptor expressed on CHO-K1 cells (UniProt P30874). In words: cell-based or functional assay.
The nature of data set [4]: CellTiter-Glo Luminescent Cell Viability Assay (cytotoxicity). The settings on record: Chinese hamster; for cytotoxicity at 20 minutes, 0.01 µM: Cytotoxicity %. On the procedure: Conjugated Complex has been tested in CHO cells expressing human recombinant sst2a. Cell viability was measured using the CellTiter-Glo® Luminescent Cell Viability Assay (Promega) that determines the number of viable cells in culture, based on quantitation of the ATP present that is an indicator of metabolically active cells.
After dispensing test compounds to the wells, cells in the incubation buffer were added to the wells and incubated for 20 minutes. At the end of incubation, CellTiter-Glo was added to each well to measure luminescence.

UniProt P30874, sequence (P30874 whole entry): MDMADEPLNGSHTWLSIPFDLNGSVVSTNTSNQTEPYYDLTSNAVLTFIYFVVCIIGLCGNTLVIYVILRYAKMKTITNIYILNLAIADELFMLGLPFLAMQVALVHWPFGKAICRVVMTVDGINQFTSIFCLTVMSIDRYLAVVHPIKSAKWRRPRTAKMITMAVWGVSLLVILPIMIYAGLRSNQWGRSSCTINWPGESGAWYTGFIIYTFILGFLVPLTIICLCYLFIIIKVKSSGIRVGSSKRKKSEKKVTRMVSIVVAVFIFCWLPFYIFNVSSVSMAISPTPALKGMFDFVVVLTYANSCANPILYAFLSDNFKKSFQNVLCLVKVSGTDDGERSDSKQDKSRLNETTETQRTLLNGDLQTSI

As to `C[C@H](N)C(=O)NCC(=O)N[C@H]1CSSC[C@@H](C(=O)O)NC(=O)[C@H](CO)NC(=O)[C@H]([C@@H](C)O)NC(=O)[C@H](Cc2ccccc2)NC(=O)[C@H]([C@@H](C)O)NC(=O)[C@H](CCCCN)NC(=O)[C@H](Cc2c[nH]c3ccccc23)NC(=O)[C@H](Cc2ccccc2)NC(=O)[C@H](Cc2ccccc2)NC(=O)[C@H](CC(N)=O)NC(=O)[C@H](CCCCN)NC1=O` [free SST, somatostatin], the “time up to which detected in rat plasma (not detected beyond)” value in data set [1] (rat plasma incubation) was ≤ 120 min. In addition, the remaining at 40 min in data set [1] (rat plasma, 40 minutes of incubation, read-out: fraction detected/remaining in rat plasma) is < 50%.

As for insulin-like growth factor-I [IGF-1], the half-life in data set [2] was 10 to 20 min.

In data set [3], Octreotide (peptide) had an EC50 (adenylyl cyclase assay, CHO-K1 cells expressing sst2a receptor) of 0.039 nM.

As to `C[C@@H](O)[C@@H]1NC(=O)[C@H](CCCCN)NC(=O)[C@@H](Cc2c[nH]c3ccccc23)NC(=O)[C@H](Cc2ccccc2)NC(=O)[C@@H](NC(=O)[C@H](N)Cc2ccccc2)CSSC[C@@H](C(=O)N[C@H](CO)[C@@H](C)O)NC1=O` [Octreotide], the cytotoxicity at 20 minutes, 0.01 µM in data set [4] (Test 2, 10 nM) is 8%; in data set [4] (test 1, 10 nM), -4%.

For `C[C@@H]1CC[C@@]2(OC1)O[C@H]1[C@@H](O)[C@H]3[C@@H]4CC[C@H]5C[C@@H](O[C@@H]6O[C@H](CO)[C@H](O[C@@H]7O[C@H](CO)[C@@H](O)[C@H](O[C@@H]8OC[C@@H](O)[C@H](O)[C@H]8O)[C@H]7O[C@@H]7O[C@H](CO)[C@H](O)[C@H](O[C@@H]8O[C@H](CO)[C@@H](O)[C@H](O)[C@H]8O)[C@H]7O)[C@H](O)[C@H]6O)[C@H](O)C[C@]5(C)[C@H]4CC[C@]3(C)[C@H]1[C@@H]2C` [Digitonin], in data set [4], the cytotoxicity at 20 min, 20 mg/ml worked out at 100%.
